Tests used:
BEAS-2B cells = assay: TNFα-stimulated BEAS-2B IL-8 release assay; type: cell-based; conditions: Homo sapiens, IC50 classes, TNF-α 10 ng/ml, 18 h, read-out: TNFα-stimulated BEAS-2B IL-8 release inhibition
Procedure, shortened: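 BEAS-2B cells at 80-90% confluence were pre-incubated 1 h with p38 inhibitors, then stimulated 18 h at 37 °C with TNF-α (10 ng/ml). Supernatant IL-8 was measured by ELISA. IC50 was taken from sigmoidal variable-slope fits of % inhibition of control release.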

[1] = test system: Peripheral Blood Mononuclear Cells (PBMCs); assay: LPS-stimulated PBMC TNFα release assay; type: cell-based; conditions: IC50 classes; human PBMC, LPS 10 ng/ml, 18 h; read-out: LPS-stimulated PBMC TNFα release inhibition
Procedure, shortened: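 Human PBMCs from healthy donors, adhered 3 h in serum-free RPMI, received compound for 1 h in 1% FBS medium before 10 ng/ml LPS for 18 h. Supernatant TNFα was measured by MSD; IC50 from percentage inhibition of control release, at least three separate experiments.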

p38alpha = target: T1, p38alpha (Homo sapiens, UniProt Q16539); assay: P38alpha enzyme inhibition assay (Alphascreen kinase activity assay); type: biochemical; conditions: IC50 classes; 2 hours preincubation at 25° C., 250 μM ATP; read-out: p38α inhibition
T1 construct: purchased Invitrogen PV3304
T1 sequence (Q16539 whole entry): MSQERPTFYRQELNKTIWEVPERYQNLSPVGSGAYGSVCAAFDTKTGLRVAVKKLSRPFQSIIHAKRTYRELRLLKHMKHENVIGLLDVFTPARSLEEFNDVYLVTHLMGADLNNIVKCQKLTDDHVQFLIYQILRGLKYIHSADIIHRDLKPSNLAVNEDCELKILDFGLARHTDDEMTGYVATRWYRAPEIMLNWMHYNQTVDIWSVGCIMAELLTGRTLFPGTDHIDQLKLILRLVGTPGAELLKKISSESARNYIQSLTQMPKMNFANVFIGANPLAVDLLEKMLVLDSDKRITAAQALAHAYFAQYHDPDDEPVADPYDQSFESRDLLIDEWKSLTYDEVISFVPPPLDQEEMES
Procedure, shortened: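 p38alpha with 0.3 μg/ml ATF-2 fusion protein in HEPES pH 7.5 buffer (10 mM MgCl2, 2 mM DTT, 1% DMSO); compounds preincubated 2 h at 25° C, then 250 μM ATP added for 1 h at 25° C. Phospho-ATF2 detected by AlphaScreen luminescence with anti-phospho-ATF2 antibody; IC50 from concentration-response curves.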

| IC50 (p38alpha) [nM] | Structure (SMILES) | IC50 (BEAS-2B cells) [nM] | IC50 [1] [nM] |
| --- | --- | --- | --- |
| < 1 | CN1CCC[C@@]1(C)c1nnc2ccc(O[C@@H]3CC[C@H](NC(=O)Nc4cc(CNS(C)(=O)=O)cc(C(C)(C)C)c4)c4ccccc43)cn12 [Example 45, N-[3-tert-Butyl-5-(3-{(1S,4R)-4-[3-((S)-1,2-dimethyl-pyrrolidin-2-yl)-[1,2,4]triazolo[4,3-a]pyridin-6-yloxy]-1,2,3,4-tetrahydro-naphthalen-1-yl}-ureido)-benzyl]-methanesulfonamide] | < 0.3 | < 1 |
| 1 to 10 | COC(=O)Nc1cc(NC(=O)N[C@H]2CC[C@@H](Oc3ccc4nnc([C@]5(C)CCCN5C)n4c3)c3ccccc32)cc(C(C)(C)C)c1 [Example 46, [3-tert-Butyl-5-(3-{(1S,4R)-4-[3-((S)-1,2-dimethyl-pyrrolidin-2-yl)-[1,2,4]triazolo[4,3-a]pyridin-6-yloxy]-1,2,3,4-tetrahydro-naphthalen-1-yl}-ureido)-phenyl]-carbamic acid methyl ester] | < 0.3 | < 1 |
| < 1 | CN1CCC[C@@]1(C)c1nnc2ccc(O[C@@H]3CC[C@H](NC(=O)Nc4cc(C(C)(C)C)cc(S(C)(=O)=O)c4)c4ccccc43)cn12 [Example 47, 1-(3-tert-Butyl-5-methanesulfonyl-phenyl)-3-{(1S,4R)-4-[3-((S)-1,2-dimethyl-pyrrolidin-2-yl)-[1,2,4]triazolo[4,3-a]pyridin-6-yloxy]-1,2,3,4-tetrahydro-naphthalen-1-yl}-urea] | < 0.3 | < 1 |
| < 1 | CN1CCC[C@@]1(C)c1nnc2ccc(O[C@@H]3CC[C@H](NC(=O)Nc4cc(CO)cc(C(C)(C)C)c4)c4ccccc43)cn12 [Example 49, 1-(3-tert-Butyl-5-hydroxymethyl-phenyl)-3-{(1S,4R)-4-[3-((S)-1,2-dimethyl-pyrrolidin-2-yl)-[1,2,4]triazolo[4,3-a]pyridin-6-yloxy]-1,2,3,4-tetrahydro-naphthalen-1-yl}-urea] | < 0.3 | < 1 |
| < 1 | CN1CCC[C@@]1(C)c1nnc2ccc(O[C@@H]3CC[C@H](NC(=O)Nc4cc(C(=O)NCCO)cc(C(C)(C)C)c4)c4ccccc43)cn12 [Example 51, 3-tert-Butyl-5-(3-{(1S,4R)-4-[3-((S)-1,2-dimethyl-pyrrolidin-2-yl)-[1,2,4]triazolo[4,3-a]pyridin-6-yloxy]-1,2,3,4-tetrahydro-naphthalen-1-yl}-ureido)-N-(2-hydroxy-ethyl)-benzamide] | 0.3 to 1 | < 1 |
| < 1 | CN1CCC[C@@]1(C)c1nnc2ccc(O[C@@H]3CC[C@H](NC(=O)Nc4cc(C(N)=O)cc(C(C)(C)C)c4)c4ccccc43)cn12 [Example 53, 3-tert-Butyl-5-(3-{(1S,4R)-4-[3-((S)-1,2-dimethyl-pyrmlidin-2-yl)-[1,2,4]triazolo[4,3-a]pyridin-6-yloxy]-1,2,3,4-tetrahydro-naphthalen-1-yl}-ureido)-benzamide] | < 0.3 | < 1 |
| < 1 | CNC(=O)c1cc(NC(=O)N[C@H]2CC[C@@H](Oc3ccc4nnc([C@@H]5CCCN5C)n4c3)c3ccccc32)cc(C(C)(C)C)c1 [Example 54, 3-tert-Butyl-N-methyl-5-(3-{(1S,4R)-4-[3-((S)-1-methyl-pyrrolidin-2-yl)-[1,2,4]triazolo[4,3-a]pyridin-6-yloxy]-1,2,3,4-tetrahydro-naphthalen-1-yl}-ureido)-benzamide] | > 1 | 1 to 5 |
| < 1 | CNC(=O)c1cc(NC(=O)N[C@H]2CC[C@@H](Oc3ccc4nnc([C@]5(C)CCCN5C)n4c3)c3ccccc32)cc(C(C)(C)C)c1 [Example 55, 3-tert-Butyl-5-(3-{(1S,4R)-4-[3-((S)-1,2-dimethyl-pyrrolidin-2-yl)-[1,2,4]triazolo[4,3-a]pyridin-6-yloxy]-1,2,3,4-tetrahydro-naphthalen-1-yl}-ureido)-N-methyl-benzamide] | < 0.3 | < 1 |
| < 1 | Cc1c(NC(=O)N[C@H]2CC[C@@H](Oc3ccc4nnc([C@]5(C)CCCN5C)n4c3)c3ccccc32)cc(C(C)(C)C)cc1NS(C)(=O)=O [Example 56, N-[5-tert-Butyl-3-(3-{(1S,4R)-4-[3-((S)-1,2-dimethyl-pyrrolidin-2-yl)-[1,2,4]triazolo[4,3-a]pyridin-6-yloxy]-1,2,3,4-tetrahydro-naphthalen-1-yl}-ureido)-2-methyl-phenyl]-methanesulfonamide] | < 0.3 | < 1 |
| < 1 | Cc1c(NC(=O)N[C@H]2CC[C@@H](Oc3ccc4nnc([C@@H]5CCCN5C)n4c3)c3ccccc32)cc(C(C)(C)C)cc1NS(C)(=O)=O [Example 57, N-[5-tert-Butyl-2-methyl-3-(3-{(1S,4R)-4-[3-((S)-1-methyl-pyrrolidin-2-yl)-[1,2,4]triazolo[4,3,a]pyridin-6-yloxy]-1,2,3,4-tetrahydro-naphthalen-1-yl}-ureido)-phenyl]-methanesulfonamide] | > 1 | 1 to 5 |
| 1 to 10 | CN1CCC[C@H]1c1nnc2ccc(O[C@@H]3CC[C@H](NC(=O)Nc4cc(N5CCOCC5)cc(C(C)(C)C)c4)c4ccccc43)cn12 [Example 58, 1-(3-tert-Butyl-5-morpholin-4-yl-phenyl)-3-{(1S,4R)-4-[3-((S)-1-methyl-pyrrolidin-2-yl)-[1,2,4]triazolo[4,3-a]pyridin-6-yloxy]-1,2,3,4-tetrahydro-naphthalen-1-yl}-urea] | 0.3 to 1 | > 5 |
| < 1 | CN1CCC[C@@]1(C)c1nnc2ccc(O[C@@H]3CC[C@H](NC(=O)Nc4cc(C(C)(C)C)ccc4CO)c4ccccc43)cn12 [Example 59, 1-(5-tert-Butyl-2-hydroxymethyl-phenyl)-3-{(1S,4R)-4-[3-((S)-1,2-dimethyl-pyrrolidin-2-yl)-[1,2,4]triazolo[4,3-a]pyridin-6-yloxy]-1,2,3,4-tetrahydro-naphthalen-1-yl}-urea] | < 0.3 | < 1 |
| < 1 | CN1CCCC[C@H]1c1nnc2ccc(O[C@@H]3CC[C@H](NC(=O)Nc4cc(NS(C)(=O)=O)cc(C(C)(C)C)c4)c4ccccc43)cn12 [Example 61, N-[3-tert-Butyl-5-(3-{(1S,4R)-4-[3-((S)-1-methyl-piperidin-2-yl)-[1,2,4]triazolo[4,3-a]pyridin-6-yloxy]-1,2,3,4-tetrahydro-naphthalen-1-yl}-ureido)-phenyl]-methanesulfonamide] | > 1 | 1 to 5 |
| < 1 | CN1CCN(C(C)(C)c2nnc3ccc(O[C@@H]4CC[C@H](NC(=O)Nc5cc(NS(C)(=O)=O)cc(C(C)(C)C)c5)c5ccccc54)cn23)CC1 [Example 62, N-{3-tert-Butyl-5-[3-((1S,4R)-4-{3-[1-methyl-1-(4-methyl-piperazin-1-yl)-ethyl]-[1,2,4]triazolo[4,3-a]pyridin-6-yloxy}-1,2,3,4-tetrahydro-naphthalen-1-yl)-ureido]-phenyl}-methanesulfonamide] | > 1 | > 5 |
| 1 to 10 | CN1CC[C@H]1c1nnc2ccc(O[C@@H]3CC[C@H](NC(=O)Nc4cc(NS(C)(=O)=O)cc(C(C)(C)C)c4)c4ccccc43)cn12 [Example 63, N-[3-tert-Butyl-5-(3-{(1S,4R)-4-[3-((S)-1-methyl-azetidin-2-yl)-[1,2,4]triazolo[4,3-a]pyridin-6-yloxy]-1,2,3,4-tetrahydro-naphthalen-1-yl}-ureido)-phenyl]-methanesulfonamide] | > 1 | > 5 |
| < 1 | CN1CCC[C@@]1(C)c1nnc2ccc(O[C@@H]3CC[C@H](NC(=O)Nc4cc(N5CCNCC5)cc(C(C)(C)C)c4)c4ccccc43)cn12 [Example 64, 1-(3-tert-Butyl-5-piperazin-1-yl-phenyl)-3-{(1S,4R)-4-[3-((S)-1,2-dimethyl-pyrrolidin-2-yl)-[1,2,4]triazolo[4,3-a]pyridin-6-yloxy]-1,2,3,4-tetrahydro-naphthalen-1-yl}-urea] | > 1 | > 5 |
| < 1 | CN(C)Cc1cc(NC(=O)N[C@H]2CC[C@@H](Oc3ccc4nnc([C@]5(C)CCCN5C)n4c3)c3ccccc32)cc(C(C)(C)C)c1 [Example 65, 1-(3-tert-Butyl-5-dimethylaminomethyl-phenyl)-3-{(1S,4R)-4-[3-((S)-1,2-dimethyl-pyrrolidin-2-yl)-[1,2,4]triazolo[4,3-a]pyridin-6-yloxy]-1,2,3,4-tetrahydro-naphthalen-1-yl}-urea] | 0.3 to 1 | 1 to 5 |
| < 1 | C[C@H]1CCCCN1c1nnc2ccc(O[C@@H]3CC[C@H](NC(=O)Nc4cc(CN(C)C)cc(C(C)(C)C)c4)c4ccccc43)cn12 [Example 66, 1-(3-tert-Butyl-5-dimethylaminomethyl-phenyl)-3-{(1S,4R)-4-[3-((S)-2-methyl-piperidin-1-yl)-[1,2,4]triazolo[4,3-a]pyridin-6-yloxy]-1,2,3,4-tetrahydro-naphthalen-1-yl}-urea] | < 0.3 | 1 to 5 |
